From ChEMBL document CHEMBL1201861, “Genomics of Drug Sensitity in Cancer screening data, Wellcome Trust Sanger Institute”

Key:
Assay in all cases: cells
ETK-1 = type: functional, cell-based, Homo sapiens; conditions: Homo sapiens, ETK-1;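 further: growth inhibition of human ETK-1 cells, read out with a cell viability assay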
Description: SANGER: Inhibition of human ETK-1 cell growth in a cell viability assay.

NCI-H526 = type: functional, cell-based; conditions: Homo sapiens;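 further: growth inhibition of the human NCI-H526 cell line, measured by a cell viability assay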
Description: SANGER: Inhibition of human NCI-H526 cell growth in a cell viability assay.

NCI-H1693 = type: functional, cell-based, Homo sapiens; conditions: Homo sapiens, NCI-H1693;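 further: growth inhibition of the human cell line, read out with a cell viability assay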
Description: SANGER: Inhibition of human NCI-H1693 cell growth in a cell viability assay.

LS-513 = type: functional, cell-based, Homo sapiens; conditions: Homo sapiens, LS-513
Description: SANGER: Inhibition of human LS-513 cell growth in a cell viability assay.

BB49-HNC = type: functional, cell-based, Homo sapiens; conditions: Homo sapiens, BB49-HNC;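 further: cell viability assay read-out, reported as inhibition of BB49-HNC cell growth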
Description: SANGER: Inhibition of human BB49-HNC cell growth in a cell viability assay.

LC-2-ad = type: functional, cell-based, Homo sapiens; conditions: Homo sapiens, LC-2-ad;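 further: growth inhibition of human LC-2-ad cells, read out with a cell viability assay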
Description: SANGER: Inhibition of human LC-2-ad cell growth in a cell viability assay.

CAL-27 = type: functional, cell-based, Homo sapiens; conditions: Homo sapiens, CAL-27;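 further: Viability-based readout, IC50 reflecting inhibition of CAL-27 cell growth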
Description: SANGER: Inhibition of human CAL-27 cell growth in a cell viability assay.

CAL-51 = type: functional, cell-based, Homo sapiens; conditions: Homo sapiens, CAL-51;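 further: human CAL-51 cell line, growth inhibition read out via a cell viability assay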
Description: SANGER: Inhibition of human CAL-51 cell growth in a cell viability assay.

NCI-H2126 = type: functional, cell-based, Homo sapiens; conditions: Homo sapiens, NCI-H2126;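 further: growth inhibition of the cancer cell line, determined with a cell viability readout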
Description: SANGER: Inhibition of human NCI-H2126 cell growth in a cell viability assay.

BB30-HNC = type: functional, cell-based, Homo sapiens; conditions: Homo sapiens, BB30-HNC;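 further: growth inhibition of the cultured cell line, read out by a cell viability assay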
Description: SANGER: Inhibition of human BB30-HNC cell growth in a cell viability assay.

MKN-28 = type: functional, cell-based, Homo sapiens; conditions: Homo sapiens, MKN-28;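 further: cell viability assay read-out, IC50 reflects suppression of growth of human MKN-28 cells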
Description: SANGER: Inhibition of human MKN28 cell growth in a cell viability assay.

KYSE-410 = type: functional, cell-based, Homo sapiens; conditions: Homo sapiens, KYSE-410;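 further: growth inhibition of KYSE-410 cells, measured through a cell viability readout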
Description: SANGER: Inhibition of human KYSE-410 cell growth in a cell viability assay.

A2780 = type: functional, cell-based, Homo sapiens; conditions: Homo sapiens, A2780;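 further: growth inhibition of A2780 cells, read out with a cell viability assay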
Description: SANGER: Inhibition of human A2780 cell growth in a cell viability assay.

SK-MEL-24 = type: functional, cell-based; conditions: Homo sapiens;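 further: growth inhibition read out by a cell viability assay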
Description: SANGER: Inhibition of human SK-MEL-24 cell growth in a cell viability assay.

C3A = type: functional, cell-based, Homo sapiens; conditions: Homo sapiens, C3A;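 further: growth inhibition of C3A human cells, quantified with a cell viability readout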
Description: SANGER: Inhibition of human C3A cell growth in a cell viability assay.

KLE = type: functional, cell-based, Homo sapiens; conditions: Homo sapiens, KLE;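 further: growth inhibition of human KLE cells, read out with a cell viability assay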
Description: SANGER: Inhibition of human KLE cell growth in a cell viability assay.

DB = type: functional, cell-based; conditions: Homo sapiens
Description: SANGER: Inhibition of human DB cell growth in a cell viability assay.

HuO-3N1 = type: functional, cell-based, Homo sapiens; conditions: Homo sapiens, HuO-3N1;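 further: cell viability readout used to measure how strongly compounds suppress proliferation of human HuO-3N1 cells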
Description: SANGER: Inhibition of human HuO-3N1 cell growth in a cell viability assay.

ES8 = type: functional, cell-based, Homo sapiens; conditions: Homo sapiens, ES8;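 further: growth inhibition of human ES8 cells, read out with a cell viability assay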
Description: SANGER: Inhibition of human ES8 cell growth in a cell viability assay.

SBC-1 = type: functional, cell-based; conditions: Homo sapiens;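 further: cell viability assay measuring growth inhibition of the SBC-1 cell line, IC50 being the concentration that halves growth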
Description: SANGER: Inhibition of human SBC-1 cell growth in a cell viability assay.

IST-MEL1 = type: functional, cell-based, Homo sapiens; conditions: Homo sapiens, IST-MEL1;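 further: growth inhibition of the cell line, read out with a cell viability assay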
Description: SANGER: Inhibition of human IST-MEL1 cell growth in a cell viability assay.

SW-620 = type: functional, cell-based, Homo sapiens; conditions: Homo sapiens, SW-620;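 further: growth inhibition of human SW-620 cells, measured by a cell viability assay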
Description: SANGER: Inhibition of human SW620 cell growth in a cell viability assay.

HO-1-N-1 = type: functional, cell-based, Homo sapiens; conditions: Homo sapiens, HO-1-N-1;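 further: growth inhibition of human HO-1-N-1 cells, read out with a cell viability assay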
Description: SANGER: Inhibition of human HO-1-N-1 cell growth in a cell viability assay.

CAL-62 = type: functional, cell-based, Homo sapiens; conditions: Homo sapiens, CAL-62;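 further: growth inhibition of CAL-62 cells, read out with a cell viability assay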
Description: SANGER: Inhibition of human CAL-62 cell growth in a cell viability assay.

MHH-PREB-1 = type: functional, cell-based; conditions: Homo sapiens;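 further: cell viability assay measuring inhibition of proliferation of human MHH-PREB-1 cells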
Description: SANGER: Inhibition of human MHH-PREB-1 cell growth in a cell viability assay.

LOX IMVI = type: functional, cell-based; conditions: Homo sapiens
Description: SANGER: Inhibition of human LOXIMVI cell growth in a cell viability assay.

KYSE-70 cell line = type: functional, cell-based, Homo sapiens; conditions: Homo sapiens, KYSE-70;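 further: cell viability assay read-out, with IC50 expressing suppression of KYSE-70 cell growth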
Description: SANGER: Inhibition of human KYSE-70 cell growth in a cell viability assay.

T98G = type: functional, cell-based, Homo sapiens; conditions: Homo sapiens, T98G;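 further: growth inhibition of T98G cells, read out by a cell viability assay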
Description: SANGER: Inhibition of human T98G cell growth in a cell viability assay.

YKG-1 = type: functional, cell-based, Homo sapiens; conditions: Homo sapiens, YKG-1;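 further: cell growth inhibition, read out with a viability assay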
Description: SANGER: Inhibition of human YKG-1 cell growth in a cell viability assay.

NB5 = type: functional, cell-based, Homo sapiens; conditions: Homo sapiens, NB5;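 further: growth inhibition of NB5 cells, read out as cell viability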
Description: SANGER: Inhibition of human NB5 cell growth in a cell viability assay.

ES4 = type: functional, cell-based, Homo sapiens; conditions: Homo sapiens, ES4;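 further: growth inhibition of human ES4 cells, read out by a cell viability assay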
Description: SANGER: Inhibition of human ES4 cell growth in a cell viability assay.

Detroit 562 = type: functional, cell-based, Homo sapiens; conditions: Homo sapiens, Detroit 562;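 further: growth inhibition of human Detroit 562 cells, read out by a cell viability assay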
Description: SANGER: Inhibition of human Detroit562 cell growth in a cell viability assay.

MHH-ES-1 = type: functional, cell-based, Homo sapiens; conditions: Homo sapiens, MHH-ES-1;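 further: cell growth inhibition measured by a cell viability assay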
Description: SANGER: Inhibition of human MHH-ES-1 cell growth in a cell viability assay.

BHT-101 = type: functional, cell-based, Homo sapiens; conditions: Homo sapiens, BHT-101
Description: SANGER: Inhibition of human BHT-101 cell growth in a cell viability assay.

VM-CUB-1 = type: functional, cell-based; conditions: Homo sapiens;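 further: cell viability assay measuring growth inhibition of the human VM-CUB-1 cell line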
Description: SANGER: Inhibition of human VM-CUB-1 cell growth in a cell viability assay.

A498 = type: functional, cell-based, Homo sapiens; conditions: Homo sapiens, A498;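 further: growth inhibition of human A498 cells, read out with a cell viability assay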
Description: SANGER: Inhibition of human A498 cell growth in a cell viability assay.

SW48 = type: functional, cell-based, Homo sapiens; conditions: Homo sapiens, SW48;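 further: growth inhibition of SW48 cells, read out with a cell viability assay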
Description: SANGER: Inhibition of human SW48 cell growth in a cell viability assay.

SW13 = type: functional, cell-based, Homo sapiens; conditions: Homo sapiens, SW13;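 further: IC50 is inhibition of SW13 cell growth, read out with a cell viability assay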
Description: SANGER: Inhibition of human SW13 cell growth in a cell viability assay.

COLO-679 = type: functional, cell-based, Homo sapiens; conditions: Homo sapiens, COLO-679
Description: SANGER: Inhibition of human COLO-679 cell growth in a cell viability assay.

CHP-212 = type: functional, cell-based, Homo sapiens; conditions: Homo sapiens, CHP-212
Description: SANGER: Inhibition of human CHP-212 cell growth in a cell viability assay.

DEL = type: functional, cell-based; conditions: Homo sapiens;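 further: growth inhibition of the human DEL cell line, read out with a cell viability assay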
Description: SANGER: Inhibition of human DEL cell growth in a cell viability assay.

MZ1-PC = type: functional, cell-based, Homo sapiens; conditions: Homo sapiens, MZ1-PC;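 further: cell viability assay measuring growth inhibition of human MZ1-PC cells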
Description: SANGER: Inhibition of human MZ1-PC cell growth in a cell viability assay.

KE-37 = type: functional, cell-based; conditions: Homo sapiens;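 further: growth inhibition of KE-37 cells, read out with a cell viability assay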
HT-3 = type: functional, cell-based, Homo sapiens; conditions: Homo sapiens, HT-3;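 further: growth inhibition measured with a cell viability readout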
Description: SANGER: Inhibition of human HT-3 cell growth in a cell viability assay.

EW-13 = type: functional, cell-based; conditions: Homo sapiens;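 further: growth inhibition of EW-13 cells, read out with a cell viability assay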
Description: SANGER: Inhibition of human EW-13 cell growth in a cell viability assay.

KNS-42 = type: functional, cell-based, Homo sapiens; conditions: Homo sapiens, KNS-42;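 further: growth inhibition of KNS-42 cells, read out with a cell viability assay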
Description: SANGER: Inhibition of human KNS-42 cell growth in a cell viability assay.

NCI-H520 = type: functional, cell-based, Homo sapiens; conditions: Homo sapiens, NCI-H520;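 further: growth inhibition of NCI-H520 cells, measured by a cell viability assay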
Description: SANGER: Inhibition of human NCI-H520 cell growth in a cell viability assay.

8305C = type: functional, cell-based, Homo sapiens; conditions: Homo sapiens, 8305C
Description: SANGER: Inhibition of human 8305C cell growth in a cell viability assay.

C-33-A = type: functional, cell-based, Homo sapiens; conditions: Homo sapiens, C-33-A;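 further: cell viability assay measuring growth inhibition of C-33-A cells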
Description: SANGER: Inhibition of human C-33-A cell growth in a cell viability assay.

LU-99A = type: functional, cell-based, Homo sapiens; conditions: Homo sapiens, LU-99A;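 further: growth inhibition of LU-99A cells, read out with a cell viability assay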
Description: SANGER: Inhibition of human LU-99A cell growth in a cell viability assay.

MEG-01 = type: functional, cell-based; conditions: Homo sapiens;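 further: growth inhibition of MEG-01 cells, read out by a cell viability assay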
Description: SANGER: Inhibition of human MEG-01 cell growth in a cell viability assay.

SNU-449 = type: functional, cell-based, Homo sapiens; conditions: Homo sapiens, SNU-449
Description: SANGER: Inhibition of human SNU-449 cell growth in a cell viability assay.

With `COc1cc(F)c(F)c(Nc2ccc(I)cc2F)c1NS(=O)(=O)C1(CC(O)CO)CC1` (stereo unspecified) the IC50 (ETK-1) was 4.24 µM, the IC50 (NCI-H526) was over 5 µM and the IC50 (NCI-H1693) was over 5 µM. For the same compound, the IC50 (LS-513) was 0.414 µM, the IC50 (BB49-HNC) was over 5 µM and the IC50 (LC-2-ad) was over 5 µM. The IC50 (CAL-27) was over 5 µM, the IC50 (CAL-51) was over 5 µM and the IC50 (NCI-H2126) was over 5 µM. It also gave an IC50 (BB30-HNC) of 1.58 µM, an IC50 (MKN-28) of over 5 µM and an IC50 (KYSE-410) of 3.35 µM. The IC50 (A2780) was over 5 µM, the IC50 (SK-MEL-24) was over 5 µM and the IC50 (C3A) was over 5 µM. It also gave an IC50 (KLE) of over 5 µM, an IC50 (DB) of over 5 µM and an IC50 (HuO-3N1) of over 5 µM. For the same compound, the IC50 (ES8) was over 5 µM, the IC50 (SBC-1) was over 5 µM and the IC50 (IST-MEL1) was 1.89 µM. For the same compound, the IC50 (SW-620) was 0.276 µM, the IC50 (HO-1-N-1) was 0.591 µM and the IC50 (CAL-62) was 0.682 µM. For the same compound, the IC50 (MHH-PREB-1) was over 5 µM, the IC50 (LOX IMVI) was 0.477 µM and the IC50 (KYSE-70 cell line) was over 5 µM. It also gave an IC50 (T98G) of over 5 µM, an IC50 (YKG-1) of 0.938 µM and an IC50 (NB5) of 0.978 µM. For the same compound, the IC50 (ES4) was over 5 µM, the IC50 (Detroit 562) was over 5 µM and the IC50 (MHH-ES-1) was over 5 µM. It also gave an IC50 (BHT-101) of 0.106 µM, an IC50 (VM-CUB-1) of 3.65 µM and an IC50 (A498) of over 5 µM. It also gave an IC50 (SW48) of over 5 µM, an IC50 (SW13) of 4.33 µM and an IC50 (COLO-679) of 0.153 µM. For the same compound, the IC50 (CHP-212) was 0.00492 µM, the IC50 (DEL) was over 5 µM and the IC50 (MZ1-PC) was 1.34 µM. It also gave an IC50 (KE-37) of over 5 µM, an IC50 (HT-3) of over 5 µM and an IC50 (EW-13) of over 5 µM. The IC50 (KNS-42) was over 5 µM, the IC50 (NCI-H520) was over 5 µM and the IC50 (8305C) was 1.29 µM. For the same compound, the IC50 (C-33-A) was over 5 µM, the IC50 (LU-99A) was 3.96 µM and the IC50 (MEG-01) was 0.786 µM. The IC50 (SNU-449) was 3.85 µM.
In the case of `O=c1cc(-c2cccc3c2Sc2ccccc2S3)oc(N2CCOCC2)c1` [KU-55933], the IC50 (ETK-1) is reported as over 10 µM, the IC50 (NCI-H526) is reported as over 10 µM and the IC50 (NCI-H1693) is reported as over 10 µM. It also gave an IC50 (LS-513) of over 10 µM, an IC50 (BB49-HNC) of over 10 µM and an IC50 (LC-2-ad) of over 10 µM. The IC50 (CAL-27) was over 10 µM, the IC50 (CAL-51) was over 10 µM and the IC50 (NCI-H2126) was over 10 µM. For the same compound, the IC50 (BB30-HNC) was over 10 µM, the IC50 (MKN-28) was over 10 µM and the IC50 (KYSE-410) was over 10 µM. For the same compound, the IC50 (A2780) was over 10 µM, the IC50 (SK-MEL-24) was over 10 µM and the IC50 (C3A) was over 10 µM. For the same compound, the IC50 (KLE) was over 10 µM, the IC50 (DB) was over 10 µM and the IC50 (HuO-3N1) was 4.17 µM. It also gave an IC50 (ES8) of over 10 µM, an IC50 (IST-MEL1) of over 10 µM and an IC50 (SW-620) of over 10 µM. For the same compound, the IC50 (HO-1-N-1) was over 10 µM, the IC50 (CAL-62) was over 10 µM and the IC50 (MHH-PREB-1) was over 10 µM. The IC50 (LOX IMVI) was over 10 µM, the IC50 (KYSE-70 cell line) was over 10 µM and the IC50 (T98G) was over 10 µM. It also gave an IC50 (YKG-1) of over 10 µM, an IC50 (NB5) of over 10 µM and an IC50 (ES4) of over 10 µM. For the same compound, the IC50 (Detroit 562) was over 10 µM, the IC50 (MHH-ES-1) was over 10 µM and the IC50 (BHT-101) was over 10 µM. It also gave an IC50 (VM-CUB-1) of over 10 µM, an IC50 (A498) of over 10 µM and an IC50 (SW48) of over 10 µM. The IC50 (SW13) was over 10 µM, the IC50 (COLO-679) was over 10 µM and the IC50 (CHP-212) was over 10 µM. The IC50 (DEL) was over 10 µM, the IC50 (MZ1-PC) was over 10 µM and the IC50 (KE-37) was over 10 µM. The IC50 (HT-3) was over 10 µM, the IC50 (EW-13) was over 10 µM and the IC50 (KNS-42) was over 10 µM. For the same compound, the IC50 (NCI-H520) was over 10 µM, the IC50 (8305C) was over 10 µM and the IC50 (C-33-A) was over 10 µM. It also gave an IC50 (LU-99A) of over 10 µM, an IC50 (MEG-01) of over 10 µM and an IC50 (SNU-449) of over 10 µM.
`CN1CCN(CCOc2cc(OC3CCOCC3)c3c(Nc4c(Cl)ccc5c4OCO5)ncnc3c2)CC1` [SARACATINIB] showed an IC50 (ETK-1) of over 2 µM, an IC50 (NCI-H526) of over 2 µM and an IC50 (LS-513) of over 2 µM. For the same compound, the IC50 (BB49-HNC) was over 2 µM, the IC50 (LC-2-ad) was over 2 µM and the IC50 (NCI-H2126) was over 2 µM. It also gave an IC50 (BB30-HNC) of 0.862 µM, an IC50 (KLE) of over 2 µM and an IC50 (DB) of over 2 µM. The IC50 (ES8) was over 2 µM, the IC50 (SBC-1) was over 2 µM and the IC50 (IST-MEL1) was over 2 µM. For the same compound, the IC50 (MHH-PREB-1) was over 2 µM, the IC50 (LOX IMVI) was over 2 µM and the IC50 (NB5) was over 2 µM. It also gave an IC50 (ES4) of over 2 µM, an IC50 (A498) of over 2 µM and an IC50 (DEL) of over 2 µM. It also gave an IC50 (MZ1-PC) of over 2 µM, an IC50 (KE-37) of over 2 µM and an IC50 (EW-13) of over 2 µM. The IC50 (KNS-42) was over 2 µM and the IC50 (MEG-01) was 0.237 µM.
